Values of other authors in publication PMC8347148, “An Evaluation of Human Induced Pluripotent Stem Cells to Test for Cardiac Developmental Toxicity” (International Journal of Molecular Sciences, 2021).

Settings: can be as high as; cited from earlier work

CN1CCC[C@H]1c1cccnc1 [nicotine]
nicotine concentration in fetal serum: ≤ 15.4 µM
